Laboratory results from US6469174B1, “Substituted pyrrolobenzimidazoles for treating inflammatory diseases” (Ortho-McNeil Pharmaceutical, Inc., priority 1998, dated 2002).
Like-named read-outs stand apart in the source and are kept apart here. Blank lines part the entries; values can stand above or below the compound they belong to.

Assays:
TNF-α [1] = assay: In vitro whole cell assay: LPS-stimulated TNF-α production in PBMC (ELISA); type: cell-based; conditions: LPS-stimulated human PBMC
Protocol: In addition to the enzyme assay, many of the compounds of the invention were tested in an in vitro whole cell assay using peripheral blood mononuclear cells (“PBMC”) which were obtained from human blood as follows. Freshly obtained venous blood was anticoagulated with heparin, diluted with an equal volume of phosphate buffered saline (“PBS”) and placed in a sterile tube or other container. Aliquots (30 mL) of this mixture were transferred to centrifuge tubes which were underlaid with Ficoll-Hypaque (15 mL). The prepared tubes were centrifuged at 400×g without braking for 30 minutes at room temperature. Approximately ½ to ⅔ of the platelet layer above the mononuclear cell band was removed with a pipet. The majority of the mononuclear cell layer was carefully removed using a pipet and these PBMC's were diluted with PBS and spun at 600×g for 15 minutes. The resulting PBMC's were washed with another portion of PBS and spun at 400×g for 10 minutes at room temperature. The recovered pellets were diluted in low endotoxin RPMI/1% FCS culture medium and gave a cell concentration of 0.5-2.0×10^6 PBMC/ mL. A small volume of the suspension was removed for counting on a hemocytometer and the remaining preparation was centrifuged at 200×g for 15 minutes at room temperature. The recovered pelleted PBMC's were resuspended in RPMI/1% FCS to a concentration of 1.67×10^6/mL.
To run the assay, the PBMC suspension (180 μL) was transferred to duplicate wells of a 96-well flat-bottom microtiter plate and incubated for 1 hour at 37° C. A solution of test compound (10 μL: prepared at 20×the desired final concentration) was added to each well and the plate was incubated for 1 hour at 37° C. A solution (10 μL) of LPS in RPMI/1% FCS (200 ng/mL) was added and the wells were incubated overnight at 37° C. The supernatant (100 μL) was removed from each well and diluted with RPMI/1% FCS (400 μL). The samples were analyzed for TNF-α using a commercial ELISA kit (Genzyme).
Certain compounds of the invention are listed in Tables A and B. The compounds were tested for their ability to inhibit TNF-α in vitro. The data are listed as an IC50 or as the % inhibition at a given concentration.

p38 = p38 (Homo sapiens, UniProt Q16539); assay: In vitro enzyme assay: inhibition of p38 activity; type: biochemical
Protocol: Compounds of the invention were measured for their ability to inhibit the activity of p38 by the following in vitro assay.
A solution (38 μL) of purified recombinant p38 (where the amount of enzyme was determined empirically considering the linear range of the assay and the acceptable signal to noise ratio; 6×His-p38 expressed in E. coli), myelin basic protein substrate (also determined empirically), and a buffer of pH 7.5 (Hepes:25 mM, MgCl2:10 mM, MnCl2:10 mM) were added to 92 wells of a 96-well round bottom polypropylene plate. The remaining wells were used for control (“CTRL”) and background (“BKG”).
The CTRL was prepared with the enzyme, substrate buffer and 2% DMSO, and the BKG was prepared with substrate buffer and 2% DMSO. […]
The contents of each well were transferred to the wells of a 96-well filterplate (Millipore, MultiScreen-DP) and the filterplate was placed on a vacuum manifold, fitted with a waste collection tray. […] MicroScint-20 scintillant was added, the plates were sealed using Topseal-S sheets and counted in a Packard TopCount scintillation counter using a ^33P liquid program with color quench correction, where the output is in color quench-corrected cpm.
The % inhibition of the test compounds was calculated by the following formula: % inhibition=[1−(sample −BKG)/(CTRL−BKG)]×100.

TNF-α [2] = assay: In vivo LPS-induced TNF-α production, oral dosing; conditions: mouse, LPS 1 mg/kg i.p.
Protocol: Mice (BALB/cJ females, Jackson Laboratories) or rats (Lewis males, Charles River) were fasted for 30 minutes prior to oral dosing with 5-10 mL/kg of test compound at 5-50 mg/kg. Thirty minutes after dosing, the animals were injected intraperitoneally with LPS at 1 mg/kg and returned to their cages for 1 hour. Animals were anesthetized by CO2, exsanguinated by cardiac puncture and whole blood collected (0.1-0.7 mL). The blood was allowed to clot and serum was transferred to a centrifuge tube. This sample was centrifuged, serum was collected, aliquoted and frozen at −80° C. Samples were tested by commercial ELISA's for TNF-α (Endogen for mouse TNF-α and Biosource for rat TNF-α).

[3] = Table B, read-out: IC50 (TNF-α in vitro)

Chain of p38 (Q16539 whole entry): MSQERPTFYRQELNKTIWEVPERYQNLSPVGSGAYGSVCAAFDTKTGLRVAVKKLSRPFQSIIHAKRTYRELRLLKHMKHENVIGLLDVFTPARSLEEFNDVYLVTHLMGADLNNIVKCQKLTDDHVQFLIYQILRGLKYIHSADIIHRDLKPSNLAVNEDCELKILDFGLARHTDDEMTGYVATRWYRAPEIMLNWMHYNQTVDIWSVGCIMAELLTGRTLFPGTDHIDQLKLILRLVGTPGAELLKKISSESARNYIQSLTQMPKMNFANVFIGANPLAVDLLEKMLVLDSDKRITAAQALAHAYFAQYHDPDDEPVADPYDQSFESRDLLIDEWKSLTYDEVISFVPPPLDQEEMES

IC50 (TNF-α [1]; Table A, read-out: TNF-α IC50): 7 nM | inhibition at 20 µM (p38): 44%
SMILES: Fc1ccc(-c2[nH]c3ccc4[nH]c(Cc5ccccc5)nc4c3c2-c2ccncc2)cc1 [Compound 1, 1,6-Dihydro-7-(4-fluorophenyl)-8-(4-pyridyl)-2-phenylmethyl-pyrrolo [3,2-e] benzimidazole]
inhibition of TNF-α (TNF-α [2]; 10 mg/kg): 74% | inhibition of TNF-α (TNF-α [2]; 25 mg/kg): 91%

IC50 (TNF-α [1]; Table A, read-out: TNF-α IC50): 20 nM
SMILES: Fc1ccc(-c2[nH]c3ccc4nc(-c5ccccc5)[nH]c4c3c2-c2ccncc2)cc1 [Compound 2, 1,6-dihydro-7-(4-fluorophenyl)-8-(4-pyridyl)-2-phenyl-pyrrolo[3,2-e]benzimidazole]

IC50 (TNF-α [1]; Table A, read-out: TNF-α IC50): 45 nM
SMILES: CCCCc1nc2ccc3[nH]c(-c4ccc(F)cc4)c(-c4ccncc4)c3c2[nH]1 [Compound 4, 1,6-dihydro-7-(4-fluorophenyl)-8-(4-pyridyl)-2-butyl-pyrrolo[3,2-e]benzimidazole]

IC50 (TNF-α [1]; Table A, read-out: TNF-α IC50): 50 nM
SMILES: Fc1ccc(-c2[nH]c3ccc4nc(CCc5ccccc5)[nH]c4c3c2-c2ccncc2)cc1 [Compound 7, 1,6-dihydro-7-(4-fluorophenyl)-8-(4-pyridyl)-2-(2-phenylethyl)-pyrrolo[3,2-e]benzimidazole]

IC50 (TNF-α [1]; [3]): 15 nM
SMILES: Fc1ccc(-c2c(-c3ccncc3)[nH]c3ccc4nc[nH]c4c23)cc1 [Compound 9, 1,6-dihydro-7-(4-pyridyl)-8-(4-fluorophenyl)-pyrrolo[3,2-e]benzimidazole]

IC50 (TNF-α [1]; [3]): > 400 nM
SMILES: Fc1ccc(-c2c(-c3ccncc3)[nH]c3ccc4nc(Cc5ccccc5)[nH]c4c23)cc1 [Compound 10, 1,6-dihydro-7-(4-pyridyl)-8-(4-fluorophenyl)-2-phenylmethyl-pyrrolo[3,2-e]benzimidazole]

SMILES: Fc1ccc(-c2c(-c3ccncc3)[nH]c3ccc4c(ncn4CCCc4ccccc4)c23)cc1 [Compound 11, 3,6-dihydro-8-(4-fluorophenyl)-3-(3-phenylpropyl)-7-(4-pyridyl)-pyrrolo[3,2-e]benzimidazole]
inhibition at 0.4 µM (TNF-α [1]; @ 400 nM, Table B, read-out: % inhibition of TNF-α at a given concentration): 0%
